Test results reported in ChEMBL document CHEMBL1147622, “Design and synthesis of indolo[2,3-a]quinolizin-7-one inhibitors of the ZipA-FtsZ interaction” (2004).

Legend:
[1] = tested on: Escherichia coli; test: Inhibition of ZipA FtsZ binding at 1 mM using an optical biosensor system
[2] = Antibacterial activity against Gram-positive, Gram-negative bacteria and Escherichia coli; assay type: functional

| Compound | inhibition [1] [%] | MIC [2] [µM] |
| --- | --- | --- |
| N#CCCNC(=O)CCn1c2c(c3ccccc31)C(=O)CN1CCCCC21 (stereo not given) | 22 | ≥ 200 |
| NCCCn1c2c(c3ccccc31)C(=O)CN1CCCCC21 (stereo not given) | 47 | ≥ 200 |
| O=C1CN2CCCCC2c2c1c1ccccc1n2CCCN1CC(Br)C1=O (stereo not given) | 38 | ≥ 200 |
| CC(C)S(=O)(=O)NCCCn1c2c(c3ccccc31)C(=O)CN1CCCCC21 (stereo not given) | 46 | ≥ 200 |
| O=C1CN2CCCCC2c2[nH]c3ccccc3c21 (stereo not given) | 39 | ≥ 200 |
| N#CCCNC(=O)CCCn1c2c(c3ccccc31)C(=O)CN1CCCCC21 (stereo not given) | 39 | ≥ 200 |
| CCCCS(=O)(=O)NCCCn1c2c(c3ccccc31)C(=O)CN1CCCCC21 (stereo not given) | 25 | ≥ 200 |
| O=C(CCCn1c2c(c3ccccc31)C(=O)CN1CCCCC21)NCC(F)(F)F (stereo not given) | 21 | ≥ 200 |
| O=C(Cc1ccc(F)cc1)NCCCn1c2c(c3ccccc31)C(=O)CN1CCCCC21 (stereo not given) | 33 | ≥ 200 |
| O=C(CCCn1c2c(c3ccccc31)C(=O)CN1CCCCC21)NC1CCCC1 (stereo not given) | 24 | ≥ 200 |

Now from value to molecule:

| inhibition [1] [%] | MIC [2] [µM] | Compound |
| --- | --- | --- |
| 32 | ≥ 200 | Cc1ccc(CNC(=O)CCn2c3c(c4ccccc42)C(=O)CN2CCCCC32)o1 (stereo not given) |
| 25 | ≥ 200 | O=C1CN2CCCCC2c2c1c1ccccc1n2CCCNS(=O)(=O)c1cccs1 (stereo not given) |
| 38 | ≥ 200 | O=C(NCCCn1c2c(c3ccccc31)C(=O)CN1CCCCC21)c1ccco1 (stereo not given) |
| 30 | ≥ 200 | Cc1nnsc1S(=O)(=O)NCCCn1c2c(c3ccccc31)C(=O)CN1CCCCC21 (stereo not given) |
| 8 | ≥ 200 | O=C(NCCCn1c2c(c3ccccc31)C(=O)CN1CCCCC21)c1ccc(Cl)c(Cl)c1 (stereo not given) |
| 12 | ≥ 200 | O=C1CN2CCCCC2c2c1c1ccccc1n2CCCNS(=O)(=O)c1cc(Cl)sc1Cl (stereo not given) |
| 11 | ≥ 200 | O=C1CN2CCCCC2c2c1c1ccccc1n2CCCNS(=O)(=O)c1ccc(Cl)s1 (stereo not given) |
| 31 | ≥ 200 | O=C(Cn1c2c(c3ccccc31)C(=O)CN1CCCCC21)NC1CCCC1 (stereo not given) |
| 23 | ≥ 200 | Cc1ccc(CNC(=O)CCCn2c3c(c4ccccc42)C(=O)CN2CCCCC32)o1 (stereo not given) |
| 41 | ≥ 200 | CS(=O)(=O)NCCCn1c2c(c3ccccc31)C(=O)CN1CCCCC21 (stereo not given) |
